Patent US20230047825A1, “ANTIMICROBIAL PEPTIDES” (priority 2019, published 2023)
≈ marks a conversion by molar mass, not a printed value. Where two headings read alike, the source gives them in different places. Where a SMILES comes first, the peptide text is derived from it.

Experiments:
[1] = tested on: C. albicans; test: MIC on initial panels, fungi; format: cell-based; conditions: unit inferred
[2] = tested on: HeLa; test: Cytotoxicity assay (XTT); format: cell-based, human; set-up: Toxicity HeLa: unit not given beside the values
Protocol: (§1) Cytotoxicity assay. HeLa and HEK293 cell lines were purchased from ECACC and cultured in Eagle's Minimum Essential Media (EMEM) containing glutamine, supplemented with 10% FBS and 1× non-essential amino acids (NEAA) at 37° C., 10% CO2. Cytotoxicity was measured by incubating starter cultures of cells for 24 hours in a 96 well plate, gently removing the supernatant and replacing it with dilutions of peptides and controls, incubating for a further 24 hours and then staining of the cells with the second generation tetrazolium dye, XTT. […]

[3] = tested on: HEK293; test: Cytotoxicity assay (XTT); format: cell-based, human
Protocol: as §1

[4] = tested on: Klebsiella pneumoniae NCTC 13368; format: cell-based; conditions: KP13368, in µg/mL
[5] = tested on: Calu-3; test: Cytotoxicity assay; format: cell-based; conditions: value printed in parentheses
[6] = tested on: Pseudomonas aeruginosa NCTC 13437; test: Antibacterial activity assay (broth microdilution MIC); format: cell-based; conditions: PA13437, in µg/mL
[7] = tested on: Acinetobacter baumannii ATCC 17978; format: cell-based; conditions: in µg/mL; for MIC, Stability in serum (MH): Ab17978
[8] = tested on: Pseudomonas aeruginosa PA01; test: Antibacterial activity assay (broth microdilution MIC); format: cell-based
[9] = tested on: MS Staphylococcus aureus ATCC 9144; format: cell-based; conditions: MSSA9144
[10] = tested on: A549; test: Cytotoxicity assay; format: cell-based; conditions: value printed in parentheses
[11] = tested on: P. aeruginosa RP73; test: Antibacterial activity assay (broth microdilution MIC); format: cell-based, Pseudomonas aeruginosa; conditions: in µg/mL
Protocol: (§2) Antibacterial activity assay.
Synergy experiments were performed following a checkerboard protocol.

[12] = tested on: Acinetobacter baumannii AYE; format: cell-based; conditions: AYE
[13] = tested on: Escherichia coli NCTC 12923; format: cell-based; conditions: EC12923
[14] = tested on: EMR Staphylococcus aureus-16 (EMRSA-16); format: cell-based; conditions: EMRSA16
[15] = tested on: EMR Staphylococcus aureus-15 (EMRSA-15); format: cell-based
[16] = tested on: Klebsiella pneumoniae M6; format: cell-based
[17] = tested on: VS Enterococcus faecalis NCTC 775; test: Antibacterial activity assay (broth microdilution MIC); format: cell-based
[18] = tested on: VR Enterococcus faecium NCTC 12204; test: as above; format: cell-based; conditions: VRE12204, in µg/mL
[19] = tested on: VRE12201; test: as above; format: cell-based, Enterococcus faecalis; conditions: medium and unit inferred
Description: as §2
The bacterial strains used are as in the above examples. A table of strains is provided below to aid understanding.

[20] = tested on: human red blood cells; test: Haemolysis assay; conditions: red cells of human, 1 h
Protocol: Haemolysis assay. Haemolysis was tested by incubating titrations of AMPs in PBS with freshly collected human red blood cells for 1 hour at 37 C. Control wells were treated with 0.1% Triton-X-100 to ensure complete lysis, or PBS-only to represent no lysis. Samples were spun down to remove non-lysed cells and the OD^550 of the supernatant was measured using a Clariostar plate reader. The percentage of haemolysis was calculated as % haemolysis=(AP−AB)/(AC−AB)×100, where AP is the absorbance value for a known peptide concentration, AC is the absorbance of the 0.1% Triton-X-100 control, AB is the absorbance of the PBS control. Data presented are averages and standard error from three biological replicate experiments.
Methods: The natural AMP (termed AMP1) was modified to produce synthetic variants, AMPs 1a, 2a, 2b, 3a and 3b. Minimum inhibitory concentrations (MICs) were determined using the microbroth dilution assay with Mueller Hinton broth (MHB) or RPMI (with 5% FBS) and stability in serum was tested by conducting MICs in MHB containing 10% FBS. Synergy experiments were performed following a checkerboard protocol. Cytotoxicity was tested against HEK293 and HeLa immortalised human cell-lines using the XTT viability stain and by quantifying haemolysis of human red blood cells. Patch clamp analysis was performed using the Port-a-Patch® automated patch-clamp system on DPhPE/DPhPG (model for a Gram-negative plasma membrane) or DPhPG (Gram-positive) model membranes challenged with peptide. The murine lung infection model was performed using the agar bead model with Staphylococcus aureus strain NCTC 13616 (EMRSA-15).

[21] = untitled table, medium/unit not given, values match RPMI of Table 2
[22] = medium and unit not given, in µg/mL
[23] = untitled table, medium/unit inferred, values match RPMI of Table 2
[24] = untitled table, medium/unit not given, values match RPMI of Table 2, in µg/mL

CC(C)C[C@@H](NC(=O)[C@@H](Cc1ccc(O)cc1)NC(=O)[C@@H](Cc1c[nH]cn1)NC(=O)[C@H](NC(=O)[C@@H](CC(C)C)NC(=O)[C@@H](C)NC(=O)[C@@H](C)NC(=O)[C@@H](CCCCN)NC(=O)CNC(=O)[C@@H](C)NC(=O)[C@@H](Cc1c[nH]cn1)NC(=O)[C@@H](CCCCN)NC(=O)CNC(=O)[C@@H](C)NC(=O)[C@@H](Cc1c[nH]cn1)NC(=O)[C@@H](C)NC(=O)[C@@H](C)NC(=O)[C@@H](CCCCN)NC(=O)[C@@H](CCCCN)NC(=O)[C@@H](Cc1ccccc1)NC(=O)[C@@H](Cc1ccccc1)NC(=O)[C@@H](CO)NC(=O)CNC(=O)[C@@H](Cc1c[nH]c2ccccc12)NC(=O)CN)[C@H](C)O)C(N)=O [D-pleurocidin-VA] (HELM PEPTIDE1{G.[dW].G.[dS].[dF].[dF].[dK].[dK].[dA].[dA].[dH].[dA].G.[dK].[dH].[dA].G.[dK].[dA].[dA].[dL].[dT].[dH].[dY].[dL].[am]}$$$$V2.0; N-terminus assumed)
MIC on initial panels, Fungi [1]: 8 µg/mL (≈ 3.01 µM)
Toxicity HeLa ([2]; unit not given): 198.2 ± 10.2
Toxicity HeLa (EC50), Peptide concentration ([2]; value printed in parentheses): (198.2 ± 10.2) μg/ml
Toxicity HEK293 ([3]; unit not given): 217.3 ± 46.5
Toxicity HEK293 (EC50), Peptide concentration ([3]; value printed in parentheses): (217.3 ± 46.5) μg/ml
MIC, Stability in serum (MH) ([4]; No serum): 8
MIC, Stability in serum (MH) ([4]; Serum (10% fetal bovine serum)): 8-32
MIC on initial panels ([4]; medium and unit not given): 8
MIC [4, 21]: 32
Toxicity Calu-3 (EC50), Peptide concentration [5]: (>250) μg/ml
MIC, Stability in serum (MH) ([6]; No serum): 32
MIC, Stability in serum (MH) ([6]; Serum (10% fetal bovine serum)): 32
MIC on initial panels ([6]; medium and unit not given): 32
MIC [6, 21]: >32
MIC on initial panels ([7]; AB17978, medium and unit not given): 1
MIC ([7]; AB17978, untitled table, medium/unit not given, values match RPMI of Table 2): 16
MIC, Stability in serum (MH) ([7]; No serum): 1
MIC, Stability in serum (MH) ([7]; Serum (10% fetal bovine serum)): 2-16
MIC, Stability in serum (MH) ([8]; No serum, in µg/mL): 4
MIC, Stability in serum (MH) ([8]; Serum (10% fetal bovine serum), in µg/mL): 16
MIC on initial panels [8, 22]: 4
MIC [8, 23]: 32 µg/mL (≈ 12.1 µM)
MIC on initial panels ([9]; medium and unit inferred): 4 µg/mL (≈ 1.51 µM)
MIC [9, 24]: 8
Toxicity A549 (EC50), Peptide concentration [10]: (>250) μg/ml
MIC on initial panels ([11]; medium and unit not given): 16-64
MIC ([11]; untitled table, medium/unit not given): 32-64
MIC, Stability in serum (MH) ([12]; No serum): 1 µg/mL (≈ 0.377 µM)
MIC, Stability in serum (MH) ([12]; Serum (10% fetal bovine serum)): 2 µg/mL (≈ 0.754 µM)
MIC on initial panels [12, 22]: 1
MIC [12, 24]: 8-32
MIC, Stability in serum (MH) ([13]; No serum): 1 µg/mL (≈ 0.377 µM)
MIC, Stability in serum (MH) ([13]; Serum (10% fetal bovine serum)): 1 µg/mL (≈ 0.377 µM)
MIC on initial panels [13, 22]: 1
MIC [13, 24]: 8
MIC on initial panels [14, 22]: 64
MIC [14, 23]: 32 µg/mL (≈ 12.1 µM)
MIC, Peptide concentration ([15]; EMR -15 (EMRSA-15)): 8 µg/mL (≈ 3.01 µM)
MIC on initial panels ([15]; EMRSA15, medium and unit inferred): 32 µg/mL (≈ 12.1 µM)
MIC ([15]; EMRSA15, untitled table, medium/unit inferred, values match RPMI of Table 2): 8 µg/mL (≈ 3.01 µM)
MIC, Peptide concentration ([15]; Mueller-Hinton broth): 32 µg/mL (≈ 12.1 µM)
MIC, Stability in serum (MH) ([16]; No serum): 4 µg/mL (≈ 1.51 µM)
MIC, Stability in serum (MH) ([16]; Serum (10% fetal bovine serum)): 8 µg/mL (≈ 3.01 µM)
MIC on initial panels [16, 22]: 4
MIC [16, 24]: 32
MIC, Peptide concentration ([17]; Mueller-Hinton broth): 64 (NG) μg/ml
MIC on initial panels ([17]; VSE775, medium and unit not given, in µg/mL): 64
MIC on initial panels ([18]; medium and unit not given): 16
MIC [18, 21]: 32-64
MIC on initial panels [19]: 128 µg/mL (≈ 48.2 µM)
Toxicity HC50, Peptide concentration [20]: >>400 μg/ml
